Test results from the kinase profiling compilation of Christmann-Franck et al. (2016).

Legend:
Assay in all cases: KINOMEscan competition binding
Conditions in all cases: compound 10.0 µM
[1] = system: FLT3 (human), P36888 [N841I]
MARK2 (human) = MARK2 (human) (UniProt Q7KZI7)
PRKCE (human) = PRKCE (human) (UniProt Q02156)
EPHB3 (human) = EPHB3 (human) (UniProt P54753)
ALK (human) = ALK (human) (UniProt Q9UM73)
LATS1 (human) = LATS1 (human) (UniProt O95835)
KDR (human) = KDR (human) (UniProt P35968)
MYLK2 (human) = MYLK2 (human) (UniProt Q9H1R3)
AURKB (human) = AURKB (human) (UniProt Q96GD4)
PRKAA1 (human) = PRKAA1 (human) (UniProt Q13131)
EPHA7 (human) = EPHA7 (human) (UniProt Q15375)
PAK2 (human) = PAK2 (human) (UniProt Q13177)
Sequence of PAK2 (human) (Q13177 whole entry, looked up): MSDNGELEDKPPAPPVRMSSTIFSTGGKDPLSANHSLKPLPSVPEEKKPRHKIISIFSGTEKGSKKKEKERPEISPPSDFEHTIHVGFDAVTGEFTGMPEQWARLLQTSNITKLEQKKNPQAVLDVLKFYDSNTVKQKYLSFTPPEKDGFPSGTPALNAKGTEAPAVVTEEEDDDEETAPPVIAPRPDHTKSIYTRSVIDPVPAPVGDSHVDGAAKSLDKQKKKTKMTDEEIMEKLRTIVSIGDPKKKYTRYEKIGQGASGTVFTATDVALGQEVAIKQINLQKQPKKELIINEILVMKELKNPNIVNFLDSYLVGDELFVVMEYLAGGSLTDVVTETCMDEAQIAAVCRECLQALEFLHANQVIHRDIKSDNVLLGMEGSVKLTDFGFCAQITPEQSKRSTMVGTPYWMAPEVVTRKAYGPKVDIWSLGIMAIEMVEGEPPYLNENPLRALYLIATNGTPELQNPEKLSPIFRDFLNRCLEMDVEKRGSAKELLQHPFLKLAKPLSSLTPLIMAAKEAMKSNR

STK17B (human) = STK17B (human) (UniProt O94768)
STK38L (human) = STK38L (human) (UniProt Q9Y2H1)
Sequence of STK38L (human) (Q9Y2H1 whole entry, looked up): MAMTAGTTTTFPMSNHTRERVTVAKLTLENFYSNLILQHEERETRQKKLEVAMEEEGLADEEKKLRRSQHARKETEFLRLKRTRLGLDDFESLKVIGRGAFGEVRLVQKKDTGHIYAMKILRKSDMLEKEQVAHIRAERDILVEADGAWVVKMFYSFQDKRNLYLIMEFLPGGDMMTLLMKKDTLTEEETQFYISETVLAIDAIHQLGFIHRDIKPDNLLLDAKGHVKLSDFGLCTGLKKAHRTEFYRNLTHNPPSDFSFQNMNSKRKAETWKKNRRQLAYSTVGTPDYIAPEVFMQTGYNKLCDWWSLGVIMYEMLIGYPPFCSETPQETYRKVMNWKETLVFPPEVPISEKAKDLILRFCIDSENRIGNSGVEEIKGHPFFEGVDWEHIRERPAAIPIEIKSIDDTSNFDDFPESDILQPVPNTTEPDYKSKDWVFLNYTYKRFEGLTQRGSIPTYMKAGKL

MKNK1 (human) = MKNK1 (human) (UniProt Q9BUB5)
NEK1 (human) = NEK1 (human) (UniProt Q96PY6)
RIOK2 (human) = RIOK2 (human) (UniProt Q9BVS4)
Sequence of RIOK2 (human) (Q9BVS4 whole entry, looked up): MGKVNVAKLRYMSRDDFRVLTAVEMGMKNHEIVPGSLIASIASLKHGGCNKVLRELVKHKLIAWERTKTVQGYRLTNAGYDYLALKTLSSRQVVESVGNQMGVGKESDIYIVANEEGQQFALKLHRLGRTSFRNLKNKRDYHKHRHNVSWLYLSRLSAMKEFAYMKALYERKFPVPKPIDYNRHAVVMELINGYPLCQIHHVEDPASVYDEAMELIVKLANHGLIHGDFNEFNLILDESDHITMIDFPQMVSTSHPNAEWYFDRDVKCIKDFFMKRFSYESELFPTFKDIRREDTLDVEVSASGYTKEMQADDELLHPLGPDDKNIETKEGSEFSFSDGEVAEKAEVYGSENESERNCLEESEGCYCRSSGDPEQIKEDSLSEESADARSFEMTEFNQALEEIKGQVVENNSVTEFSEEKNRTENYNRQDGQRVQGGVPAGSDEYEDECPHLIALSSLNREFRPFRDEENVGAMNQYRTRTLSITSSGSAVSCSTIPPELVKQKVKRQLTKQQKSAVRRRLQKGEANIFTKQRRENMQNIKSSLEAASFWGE

DYRK1B (human) = DYRK1B (human) (UniProt Q9Y463)
MAPK13 (human) = MAPK13 (human) (UniProt O15264)
PTK6 (human) = PTK6 (human) (UniProt Q13882)
PLK1 (human) = PLK1 (human) (UniProt P53350)
TAOK1 (human) = TAOK1 (human) (UniProt Q7L7X3)
[2] = system: FLT3 (human), P36888 [ITD]
TYRO3 (human) = TYRO3 (human) (UniProt Q06418)
ANKK1 (human) = ANKK1 (human) (UniProt Q8NFD2)
RPS6KA5 KD1 (human) = RPS6KA5 KD1 (human) (UniProt O75582)
DCLK2 (human) = DCLK2 (human) (UniProt Q8N568)
RPS6KA5 KD2 (human) = RPS6KA5 KD2 (human) (UniProt O75582)
CSNK2A2 (human) = CSNK2A2 (human) (UniProt P19784)
Sequence of CSNK2A2 (human) (P19784 whole entry, looked up): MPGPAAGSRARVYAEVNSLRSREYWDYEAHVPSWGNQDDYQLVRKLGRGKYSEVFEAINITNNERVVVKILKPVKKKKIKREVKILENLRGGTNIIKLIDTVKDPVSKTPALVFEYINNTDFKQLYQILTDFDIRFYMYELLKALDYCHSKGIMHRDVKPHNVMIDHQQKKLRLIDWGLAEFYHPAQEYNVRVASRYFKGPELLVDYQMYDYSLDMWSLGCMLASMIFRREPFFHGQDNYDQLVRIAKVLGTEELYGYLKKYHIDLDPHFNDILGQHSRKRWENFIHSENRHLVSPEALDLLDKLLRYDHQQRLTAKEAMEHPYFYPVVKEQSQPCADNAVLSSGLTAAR

TLK2 (human) = TLK2 (human) (UniProt Q86UE8)
CLK4 (human) = CLK4 (human) (UniProt Q9HAZ1)
PIP4K2B (human) = PIP4K2B (human) (UniProt P78356)
PRKG1 (human) = PRKG1 (human) (UniProt Q13976)
FLT3 (human) = FLT3 (human) (UniProt P36888)
ROS1 (human) = ROS1 (human) (UniProt P08922)
Sequence of ROS1 (human) (P08922 whole entry, looked up): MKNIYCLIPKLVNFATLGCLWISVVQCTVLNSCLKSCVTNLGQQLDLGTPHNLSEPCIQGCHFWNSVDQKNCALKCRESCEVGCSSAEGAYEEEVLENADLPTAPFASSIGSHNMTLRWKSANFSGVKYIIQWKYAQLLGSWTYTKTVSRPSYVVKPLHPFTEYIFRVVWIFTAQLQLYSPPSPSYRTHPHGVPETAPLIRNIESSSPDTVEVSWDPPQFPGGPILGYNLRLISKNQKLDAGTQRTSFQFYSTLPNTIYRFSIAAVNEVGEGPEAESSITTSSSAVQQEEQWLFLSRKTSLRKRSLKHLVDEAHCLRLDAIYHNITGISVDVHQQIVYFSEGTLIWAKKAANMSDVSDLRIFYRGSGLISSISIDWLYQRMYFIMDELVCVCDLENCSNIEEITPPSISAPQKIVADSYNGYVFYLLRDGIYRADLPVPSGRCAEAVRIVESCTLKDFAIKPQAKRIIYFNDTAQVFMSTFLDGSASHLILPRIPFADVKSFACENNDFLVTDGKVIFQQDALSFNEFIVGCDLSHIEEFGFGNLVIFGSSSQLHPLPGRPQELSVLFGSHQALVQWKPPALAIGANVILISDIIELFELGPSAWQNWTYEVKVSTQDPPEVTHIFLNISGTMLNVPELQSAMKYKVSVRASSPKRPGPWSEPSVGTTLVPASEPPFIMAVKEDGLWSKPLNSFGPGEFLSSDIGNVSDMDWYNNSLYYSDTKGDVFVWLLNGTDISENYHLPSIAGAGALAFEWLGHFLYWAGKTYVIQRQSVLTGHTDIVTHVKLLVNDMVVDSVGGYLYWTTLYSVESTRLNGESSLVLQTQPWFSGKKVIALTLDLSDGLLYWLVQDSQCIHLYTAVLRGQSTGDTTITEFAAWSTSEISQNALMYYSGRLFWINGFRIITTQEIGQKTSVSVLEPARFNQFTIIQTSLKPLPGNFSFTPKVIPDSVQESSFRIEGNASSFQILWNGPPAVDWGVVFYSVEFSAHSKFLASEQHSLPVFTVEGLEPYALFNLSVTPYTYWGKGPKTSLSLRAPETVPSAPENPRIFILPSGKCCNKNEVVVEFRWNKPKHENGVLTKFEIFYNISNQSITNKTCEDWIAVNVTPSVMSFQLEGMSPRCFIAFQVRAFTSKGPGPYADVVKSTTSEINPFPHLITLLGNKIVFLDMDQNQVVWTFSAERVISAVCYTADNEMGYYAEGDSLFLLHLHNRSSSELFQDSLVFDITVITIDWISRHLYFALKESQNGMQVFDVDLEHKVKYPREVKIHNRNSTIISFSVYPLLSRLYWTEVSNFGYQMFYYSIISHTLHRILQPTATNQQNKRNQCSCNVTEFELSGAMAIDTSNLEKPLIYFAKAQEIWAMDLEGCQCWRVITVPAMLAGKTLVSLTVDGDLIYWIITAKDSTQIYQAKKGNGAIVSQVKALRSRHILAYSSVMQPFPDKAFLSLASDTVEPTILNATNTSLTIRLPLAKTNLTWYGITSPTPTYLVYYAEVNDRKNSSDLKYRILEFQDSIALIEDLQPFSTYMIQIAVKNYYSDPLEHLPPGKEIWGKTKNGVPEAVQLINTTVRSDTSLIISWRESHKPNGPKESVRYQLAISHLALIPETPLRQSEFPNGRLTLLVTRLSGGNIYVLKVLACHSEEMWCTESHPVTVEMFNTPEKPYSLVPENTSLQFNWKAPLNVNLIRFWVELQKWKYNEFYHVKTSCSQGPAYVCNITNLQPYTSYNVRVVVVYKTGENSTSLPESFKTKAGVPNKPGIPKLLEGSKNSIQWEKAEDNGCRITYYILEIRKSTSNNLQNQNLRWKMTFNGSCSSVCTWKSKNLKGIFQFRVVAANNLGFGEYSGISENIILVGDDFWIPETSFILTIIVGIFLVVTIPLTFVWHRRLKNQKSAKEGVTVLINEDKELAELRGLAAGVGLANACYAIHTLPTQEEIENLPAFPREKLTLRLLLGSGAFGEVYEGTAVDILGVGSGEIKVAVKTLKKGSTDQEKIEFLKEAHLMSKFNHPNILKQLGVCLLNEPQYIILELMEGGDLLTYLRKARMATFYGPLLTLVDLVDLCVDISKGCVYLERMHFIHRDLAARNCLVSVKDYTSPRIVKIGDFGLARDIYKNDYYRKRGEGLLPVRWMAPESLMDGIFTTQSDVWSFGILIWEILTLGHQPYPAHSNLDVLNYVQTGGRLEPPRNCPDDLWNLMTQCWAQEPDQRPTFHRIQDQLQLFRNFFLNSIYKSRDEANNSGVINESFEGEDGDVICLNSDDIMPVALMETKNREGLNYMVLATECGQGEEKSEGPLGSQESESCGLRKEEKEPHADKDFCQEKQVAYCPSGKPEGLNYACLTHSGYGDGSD

HIPK1 (human) = HIPK1 (human) (UniProt Q86Z02)
CAMK1D (human) = CAMK1D (human) (UniProt Q8IU85)
PRKX (human) = PRKX (human) (UniProt P51817)
MAP4K5 (human) = MAP4K5 (human) (UniProt Q9Y4K4)
MAPK11 (human) = MAPK11 (human) (UniProt Q15759)

Sequence of MARK2 (human) (Q7KZI7 whole entry, looked up): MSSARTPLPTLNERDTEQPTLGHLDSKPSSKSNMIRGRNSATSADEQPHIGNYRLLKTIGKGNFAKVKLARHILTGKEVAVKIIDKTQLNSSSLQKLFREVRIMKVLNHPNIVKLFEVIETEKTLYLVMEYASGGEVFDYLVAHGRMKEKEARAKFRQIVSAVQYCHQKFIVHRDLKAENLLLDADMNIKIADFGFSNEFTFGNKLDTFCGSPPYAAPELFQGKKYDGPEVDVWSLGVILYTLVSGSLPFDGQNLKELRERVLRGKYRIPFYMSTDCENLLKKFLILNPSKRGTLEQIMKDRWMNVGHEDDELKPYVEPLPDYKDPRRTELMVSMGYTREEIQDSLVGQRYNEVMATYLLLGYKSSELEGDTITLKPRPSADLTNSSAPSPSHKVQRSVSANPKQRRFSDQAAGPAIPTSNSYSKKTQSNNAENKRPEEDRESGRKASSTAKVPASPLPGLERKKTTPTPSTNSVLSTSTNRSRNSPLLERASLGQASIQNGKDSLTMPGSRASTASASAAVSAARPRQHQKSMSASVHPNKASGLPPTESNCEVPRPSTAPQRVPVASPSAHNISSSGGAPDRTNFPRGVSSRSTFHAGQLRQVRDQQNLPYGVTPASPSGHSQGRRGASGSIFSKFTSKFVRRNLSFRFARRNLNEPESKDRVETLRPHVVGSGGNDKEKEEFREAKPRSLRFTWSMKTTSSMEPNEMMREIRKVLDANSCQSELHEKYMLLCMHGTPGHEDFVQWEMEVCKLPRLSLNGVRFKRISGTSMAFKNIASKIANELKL

Row | Structure (SMILES) | kinase still bound, per cent of control [1] [%] | kinase still bound, per cent of control (MARK2 (human)) [%] | kinase still bound, per cent of control (PRKCE (human)) [%] | kinase still bound, per cent of control (EPHB3 (human)) [%] | kinase still bound, per cent of control (ALK (human)) [%] | kinase still bound, per cent of control (LATS1 (human)) [%] | kinase still bound, per cent of control (KDR (human)) [%] | kinase still bound, per cent of control (MYLK2 (human)) [%] | kinase still bound, per cent of control (AURKB (human)) [%] | kinase still bound, per cent of control (PRKAA1 (human)) [%] | kinase still bound, per cent of control (EPHA7 (human)) [%] | kinase still bound, per cent of control (PAK2 (human)) [%] | kinase still bound, per cent of control (STK17B (human)) [%] | kinase still bound, per cent of control (STK38L (human)) [%] | kinase still bound, per cent of control (MKNK1 (human)) [%] | kinase still bound, per cent of control (NEK1 (human)) [%] | kinase still bound, per cent of control (RIOK2 (human)) [%] | kinase still bound, per cent of control (DYRK1B (human)) [%] | kinase still bound, per cent of control (MAPK13 (human)) [%] | kinase still bound, per cent of control (PTK6 (human)) [%] | further results
1 | Cc1ccc(C(=O)Nc2cccc(C(F)(F)F)c2)cc1Nc1cncc(C(N)=O)c1 | 100 | 100 | 100 | 3.3 | 100 | 100 | 100 | 100 | 100 | 100 | 100 | 100 | 100 | 100 | 100 | 100 | 100 | 100 | 100 | 100 | kinase still bound, per cent of control (PLK1 (human)): 100%; kinase still bound, per cent of control (TAOK1 (human)): 100%; kinase still bound, per cent of control [2]: 100%; kinase still bound, per cent of control (TYRO3 (human)): 100%; kinase still bound, per cent of control (ANKK1 (human)): 100%; kinase still bound, per cent of control (RPS6KA5 KD1 (human)): 100%; kinase still bound, per cent of control (DCLK2 (human)): 100%; kinase still bound, per cent of control (RPS6KA5 KD2 (human)): 100%; kinase still bound, per cent of control (CSNK2A2 (human)): 100%; kinase still bound, per cent of control (TLK2 (human)): 100%; kinase still bound, per cent of control (CLK4 (human)): 100%; kinase still bound, per cent of control (PIP4K2B (human)): 100%; kinase still bound, per cent of control (PRKG1 (human)): 100%; kinase still bound, per cent of control (FLT3 (human)): 100%; kinase still bound, per cent of control (ROS1 (human)): 100%; kinase still bound, per cent of control (HIPK1 (human)): 100%; kinase still bound, per cent of control (CAMK1D (human)): 100%; kinase still bound, per cent of control (PRKX (human)): 100%; kinase still bound, per cent of control (MAP4K5 (human)): 100%; kinase still bound, per cent of control (MAPK11 (human)): 100%
2 | Nc1ccc(-c2ccc3ncc4ccc(=O)n(-c5cccc(C(F)(F)F)c5)c4c3c2)cn1 | 11 | 100 | 69 | 100 | 100 | 100 | 100 | 100 | 89 | 100 | 100 | 100 | 89 | 100 | 43 | 87 | 70 | 97 | 48 | 100 | kinase still bound, per cent of control (PLK1 (human)): 94%; kinase still bound, per cent of control (TAOK1 (human)): 62%; kinase still bound, per cent of control [2]: 45%; kinase still bound, per cent of control (TYRO3 (human)): 100%; kinase still bound, per cent of control (ANKK1 (human)): 100%; kinase still bound, per cent of control (RPS6KA5 KD1 (human)): 100%; kinase still bound, per cent of control (DCLK2 (human)): 98%; kinase still bound, per cent of control (RPS6KA5 KD2 (human)): 100%; kinase still bound, per cent of control (CSNK2A2 (human)): 48%; kinase still bound, per cent of control (TLK2 (human)): 100%; kinase still bound, per cent of control (CLK4 (human)): 34%; kinase still bound, per cent of control (PIP4K2B (human)): 100%; kinase still bound, per cent of control (PRKG1 (human)): 83%; kinase still bound, per cent of control (FLT3 (human)): 12%; kinase still bound, per cent of control (ROS1 (human)): 82%; kinase still bound, per cent of control (HIPK1 (human)): 79%; kinase still bound, per cent of control (CAMK1D (human)): 100%; kinase still bound, per cent of control (PRKX (human)): 100%; kinase still bound, per cent of control (MAP4K5 (human)): 100%; kinase still bound, per cent of control (MAPK11 (human)): 83%
